We go through one compound from patent US20050050594A1, “Tryptophan synthase as a site of herbicide action” (priority 1999, published 2005).

Test [1] deals with T1, Salmonella typhimurium tryptophan synthase holoenzyme (α2β2), TSα reaction (Salmonella typhimurium, UniProt P00929).
T1 construct: made in house; host or cells: E. coli strain CB149pSTB7
Put plainly: Inhibition of tryptophan synthase by the TSα reaction, microtiter kinetic coupled enzyme assay. Type of test: biochemical. The gist of the method:
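S. typhimurium α2β2 holoenzyme (~1.5 e.u.) in 50 mM Tris-Cl pH 7.8 with 60 mM serine, started with 100 μM IGP (1.5-2× Km), 37° C. Glyceraldehyde-3-P formation coupled to yeast GAPDH/1.6 mM NAD+, read at 340 nm. Inhibitor at 100 μM or 1:1 dilutions; some preincubated 24 h before IGP.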

A further test relates to TSβ (Spinacea enzyme). Put plainly: TSβ assay with partially purified spinach enzyme. Type of test: biochemical, Spinacea oleracea. On the set-up: key: the increase in the number of “+” corresponds to the increase of inhibition; +++++: the increase in the number of “+” corresponds to the increase of inhibition; +++++++: the increase in the number of “+” corresponds to the increase of inhibition. Conditions: determined qualitatively. The protocol:
The assay was conducted in microfuge tubes by the TSβ reaction (indole+L-serine→L-tryptophan+H2O). 100 μL of extract was mixed with 150 μL of 0.4 mM indole, 80 mM serine, 0.03 mM PLP, 0.1 M Tris-Cl buffer pH 7.8, containing 7.5 μL of saturated NaCl. The mixture was incubated at 21° C. for increasing time intervals, from 10 min to several hours. The reaction was terminated by adding 25 μL 1 N NaOH, then 1 mL toluene with mixing, and then centifuging in a microfuge 2 min at 10,000×G to partition remaining indole into the toluene phase and away from the enzyme. Remaining indole was subsequently partitioned into the indole reagent phase and reacted with dimethylaminobenzaldehyde: 500 μL of the toluene layer from the microfuge tubes was mixed with 1 ml of the indole reagent in another tube and allowed to separate for 20 min, then the lower layer was carefully pipetted into a cuvette and its absorbance measured at 540 nm. This part of the assay was conducted as known in the art.
A unique microtiter plate method was also developed to streamline the partitioning steps and data collection. First, the TSβ reaction was performed as above in microfuge tubes. […] The plate was covered by a mylar sheet (to protect the plate reader and avoid evaporation) and absorbance was monitored on the plate reader at 535 nm. […]
TS was partially purified from spinach for use in the TSβ assay. The greatest degree of purification was achieved by homogenizing the tissue, preparing the 30-50% ammonium sulfate fraction and freezing it, thawing it, and applying the dissolved precipitate to an FPLC column (Waters SW300, Waters Corporation, Franklin, Mass.) to separate the TS activity (measured as TSβ) from the bulk of the protein. […] Because of the low yield of the assay of partially purified plant TS, endogenous enzyme was measured in crude extracts or in enzyme preparations involving one or two purification steps. […]

pIC50: −log10 of the molar value.

T1 sequence (P00929 whole entry): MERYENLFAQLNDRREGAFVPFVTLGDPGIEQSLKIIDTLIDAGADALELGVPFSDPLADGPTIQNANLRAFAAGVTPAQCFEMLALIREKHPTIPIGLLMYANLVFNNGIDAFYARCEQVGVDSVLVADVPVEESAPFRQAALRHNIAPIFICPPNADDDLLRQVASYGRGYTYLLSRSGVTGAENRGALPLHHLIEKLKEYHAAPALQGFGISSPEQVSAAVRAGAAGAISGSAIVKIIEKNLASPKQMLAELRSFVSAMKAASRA
T1 sequence (P0A2K1 2-397, further chain): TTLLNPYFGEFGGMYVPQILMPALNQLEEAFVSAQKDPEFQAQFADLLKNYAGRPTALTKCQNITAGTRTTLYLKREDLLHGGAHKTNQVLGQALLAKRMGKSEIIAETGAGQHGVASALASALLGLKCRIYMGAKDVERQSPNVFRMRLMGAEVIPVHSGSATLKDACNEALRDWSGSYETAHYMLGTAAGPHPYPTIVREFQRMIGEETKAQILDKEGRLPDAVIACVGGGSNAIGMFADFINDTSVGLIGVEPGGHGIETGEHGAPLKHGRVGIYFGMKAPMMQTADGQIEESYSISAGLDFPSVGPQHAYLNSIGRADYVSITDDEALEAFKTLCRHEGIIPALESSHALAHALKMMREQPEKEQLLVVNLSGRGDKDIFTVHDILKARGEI

For the compound `O=P(O)(O)CCCCSc1ccccc1O` [Compound 22, {4-[(o-hydroxyphenyl)thio]butyl}-phosphonic acid], the pIC50 in test [1] (I50 TS, TSα reaction of Salmonella holoenzyme) is 6.89; in test [1] (TSα activity (Salmonella enzyme) I50) it was 6.89. Besides, the “TSβ (Spinacea enzyme), relative activity” value in the test on TSβ (Spinacea enzyme) is listed as “+”.

Broadly, the pIC50 is the negative decadic logarithm of the IC50, by convention in mol/L.
